In PubChem BioAssay (NCI):
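Growth conditions: 96-well plates. Treatment: test compound, 48 hours, 5 concentrations. Analysis: linear interpolation between bracketing concentrations; unreached endpoints set to highest concentration. The concentration for 50% growth inhibition is given as GI50. Definition used: TGI = concentration required for complete inhibition of growth.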

What was measured:
Assay in all cases: NCI tumour cell line growth inhibition, 48 h
DU-145 prostate = tested on: DU-145 prostate
HCT-116 colon = tested on: HCT-116 colon
SK-MEL-2 melanoma = tested on: SK-MEL-2 melanoma
NCI-H460 lung = tested on: NCI-H460 lung
MDA-MB-231 breast = tested on: MDA-MB-231 breast
HT29 colon = tested on: HT29 colon
BT-549 breast = tested on: BT-549 breast
HL-60(TB) leukemia = tested on: HL-60(TB) leukemia

Fc1ccc(Nc2nc3nonc3nc2Nc2ccc(I)cc2)cc1
GI50 (DU-145 prostate): 0.395 µM
TGI (DU-145 prostate): 16.8 µM
GI50 (HCT-116 colon): 0.24 µM
TGI (HCT-116 colon): 11.3 µM
GI50 (SK-MEL-2 melanoma): 0.213 µM
TGI (SK-MEL-2 melanoma): 0.617 µM
GI50 (NCI-H460 lung): 0.312 µM
TGI (NCI-H460 lung): 12.4 µM
GI50 (MDA-MB-231 breast): 0.31 µM
TGI (MDA-MB-231 breast): 1.72 µM
GI50 (HT29 colon): 0.303 µM
TGI (HT29 colon): 10.3 µM
GI50 (BT-549 breast): 0.266 µM
TGI (BT-549 breast): 2.02 µM

CC1(C)C(CC(=O)O)CCCC1CC(=O)O (stereo not drawn)
TGI (DU-145 prostate): > 100 µM
TGI (HCT-116 colon): > 100 µM
TGI (SK-MEL-2 melanoma): > 100 µM
TGI (MDA-MB-231 breast): > 100 µM
TGI (HT29 colon): > 100 µM
TGI (BT-549 breast): > 100 µM

COc1cc2c(cc1[N+](=O)[O-])C(=O)C(Br)(Br)CCC2
TGI (DU-145 prostate): 25.8 µM
TGI (HCT-116 colon): 1.87 µM
TGI (SK-MEL-2 melanoma): 4.8 µM
TGI (NCI-H460 lung): 20.1 µM
TGI (MDA-MB-231 breast): 9.42 µM
TGI (HT29 colon): 11.2 µM
TGI (HL-60(TB) leukemia): 21 µM
TGI (BT-549 breast): 4.97 µM

O=C1c2ccc3c4c(ccc(c24)C(=O)N1CCNCc1ccccc1)C(=O)N(CCNCc1ccccc1)C3=O
GI50 (DU-145 prostate): 2.76 µM
TGI (DU-145 prostate): 11.4 µM
GI50 (HCT-116 colon): 1.42 µM
TGI (HCT-116 colon): 2.89 µM
GI50 (SK-MEL-2 melanoma): 2.23 µM
TGI (SK-MEL-2 melanoma): 5.81 µM
GI50 (NCI-H460 lung): 1.8 µM
TGI (NCI-H460 lung): 4.26 µM
GI50 (MDA-MB-231 breast): 2.31 µM
TGI (MDA-MB-231 breast): 6.61 µM
GI50 (HL-60(TB) leukemia): 2.09 µM
TGI (HL-60(TB) leukemia): 4.91 µM
GI50 (BT-549 breast): 2.45 µM
TGI (BT-549 breast): 6.19 µM

O=C(O)c1ccc(/C=N/N=C2c3ccccc3-c3ccccc32)cc1
TGI (DU-145 prostate): > 100 µM
TGI (HCT-116 colon): > 100 µM
TGI (SK-MEL-2 melanoma): 75.1 µM
TGI (NCI-H460 lung): > 100 µM
TGI (MDA-MB-231 breast): > 100 µM
TGI (HT29 colon): > 100 µM
TGI (HL-60(TB) leukemia): > 100 µM
TGI (BT-549 breast): > 100 µM

CCCCCCCCCCCCCCCCCC[S+](C)CC (stereo not drawn)
GI50 (DU-145 prostate): 1.41 µM
TGI (DU-145 prostate): 2.75 µM
GI50 (MDA-MB-231 breast): 1.67 µM
TGI (MDA-MB-231 breast): 3.83 µM
GI50 (HL-60(TB) leukemia): 1.17 µM
TGI (HL-60(TB) leukemia): 3.8 µM

C[C@]12CC[C@@H]3c4ccc(OC(=O)N(CCCl)CCCl)cc4CC[C@H]3[C@@H]1CC[C@@H]2OP(=O)(O)O
GI50 (DU-145 prostate): 59.5 µM
TGI (DU-145 prostate): > 100 µM
GI50 (HCT-116 colon): 41.9 µM
TGI (HCT-116 colon): > 100 µM
GI50 (SK-MEL-2 melanoma): 41.8 µM
TGI (SK-MEL-2 melanoma): > 100 µM
GI50 (NCI-H460 lung): 36.1 µM
TGI (NCI-H460 lung): > 100 µM
GI50 (MDA-MB-231 breast): 26.8 µM
TGI (MDA-MB-231 breast): > 64.3 µM
GI50 (HT29 colon): 33.7 µM
TGI (HT29 colon): > 100 µM
GI50 (HL-60(TB) leukemia): 30.1 µM
TGI (HL-60(TB) leukemia): 98.5 µM
GI50 (BT-549 breast): 27.1 µM
TGI (BT-549 breast): 79.1 µM

CC(=O)N[C@@H](Cc1ccc(OP(=O)(O)O)cc1)C(=O)N[C@H]1CCC(=O)N2CCC[C@@H](C(=O)NC3CCc4ccccc43)N2C1=O (stereo partly drawn)
GI50 (DU-145 prostate): > 25 µM
TGI (DU-145 prostate): > 25 µM
GI50 (HCT-116 colon): > 25 µM
TGI (HCT-116 colon): > 25 µM
GI50 (SK-MEL-2 melanoma): > 25 µM
TGI (SK-MEL-2 melanoma): > 25 µM
GI50 (NCI-H460 lung): > 25 µM
TGI (NCI-H460 lung): > 25 µM
GI50 (MDA-MB-231 breast): > 25 µM
TGI (MDA-MB-231 breast): > 25 µM
GI50 (HT29 colon): > 25 µM
TGI (HT29 colon): > 25 µM
GI50 (HL-60(TB) leukemia): > 25 µM
TGI (HL-60(TB) leukemia): > 25 µM
GI50 (BT-549 breast): > 25 µM
TGI (BT-549 breast): > 25 µM

COC(=O)[C@]12CC[C@@H](C)[C@H](C)[C@@H]1C1=CC[C@@H]3[C@@](C)(CC#N)C4=C(C[C@@]3(C)[C@]1(C)CC2)OC[C@]4(C)C=O
GI50 (DU-145 prostate): 4.78 µM
TGI (DU-145 prostate): > 100 µM
GI50 (HCT-116 colon): 2.78 µM
TGI (HCT-116 colon): 10.7 µM
GI50 (SK-MEL-2 melanoma): 4.31 µM
TGI (SK-MEL-2 melanoma): 18 µM
GI50 (NCI-H460 lung): 10.5 µM
TGI (NCI-H460 lung): 28 µM
GI50 (MDA-MB-231 breast): 3.34 µM
TGI (MDA-MB-231 breast): 18.5 µM
GI50 (HT29 colon): 5.85 µM
TGI (HT29 colon): 41.5 µM
GI50 (HL-60(TB) leukemia): 3.03 µM
TGI (HL-60(TB) leukemia): 6.77 µM
GI50 (BT-549 breast): 4.08 µM
TGI (BT-549 breast): 32.9 µM

C[C@]12CC[C@H]3[C@@H](CC[C@]4(O)C[C@@H](O[C@@H]5O[C@H](CO)[C@@H](O[C@@H]6OC[C@@H](O)[C@H](O)[C@H]6O)[C@H](O)[C@H]5O)CC[C@]34C=O)[C@@]1(O)CC[C@@H]2C1=CC(=O)OC1
GI50 (DU-145 prostate): 0.902 µM
TGI (DU-145 prostate): 2.31 µM
GI50 (HCT-116 colon): 1.47 µM
TGI (HCT-116 colon): 5.77 µM
GI50 (SK-MEL-2 melanoma): 1.49 µM
TGI (SK-MEL-2 melanoma): 4.44 µM
GI50 (NCI-H460 lung): 0.379 µM
TGI (NCI-H460 lung): 1.31 µM
GI50 (MDA-MB-231 breast): 3.38 µM
TGI (MDA-MB-231 breast): 22 µM
GI50 (HT29 colon): 1.82 µM
TGI (HT29 colon): 5.71 µM
GI50 (HL-60(TB) leukemia): 1.12 µM
TGI (HL-60(TB) leukemia): 3.08 µM
GI50 (BT-549 breast): 1.06 µM
TGI (BT-549 breast): 5.2 µM

O=c1/c(=C\c2ccc(Br)cc2)sc2n1C(c1ccc(Br)cc1)C1=C(N=2)c2ccc3ccccc3c2OCC1 (stereo not drawn)
GI50 (DU-145 prostate): > 100 µM
TGI (DU-145 prostate): > 100 µM
GI50 (HCT-116 colon): > 100 µM
TGI (HCT-116 colon): > 100 µM
GI50 (SK-MEL-2 melanoma): > 100 µM
TGI (SK-MEL-2 melanoma): > 100 µM
GI50 (NCI-H460 lung): > 100 µM
TGI (NCI-H460 lung): > 100 µM
GI50 (MDA-MB-231 breast): > 100 µM
TGI (MDA-MB-231 breast): > 100 µM
GI50 (HT29 colon): > 100 µM
TGI (HT29 colon): > 100 µM
GI50 (HL-60(TB) leukemia): > 100 µM
TGI (HL-60(TB) leukemia): > 100 µM
GI50 (BT-549 breast): > 100 µM
TGI (BT-549 breast): > 100 µM

COC1C(=O)CCC2(CO2)C1(O)C1(C)OC1CC=C(C)C (stereo not drawn)
TGI (DU-145 prostate): > 100 µM
TGI (HCT-116 colon): > 100 µM
TGI (SK-MEL-2 melanoma): > 100 µM
TGI (NCI-H460 lung): > 100 µM
TGI (MDA-MB-231 breast): > 100 µM
TGI (HT29 colon): > 100 µM
TGI (BT-549 breast): > 100 µM

O=C(NN1C(=O)CSC1c1c(Cl)cccc1Cl)C(O)c1ccccc1 (stereo not drawn)
GI50 (DU-145 prostate): > 100 µM
TGI (DU-145 prostate): > 100 µM
GI50 (HCT-116 colon): 36.7 µM
TGI (HCT-116 colon): > 100 µM
GI50 (SK-MEL-2 melanoma): 50.5 µM
TGI (SK-MEL-2 melanoma): > 100 µM
GI50 (NCI-H460 lung): 40.4 µM
TGI (NCI-H460 lung): > 100 µM
GI50 (MDA-MB-231 breast): 19.2 µM
TGI (MDA-MB-231 breast): > 100 µM
GI50 (HT29 colon): 33.1 µM
TGI (HT29 colon): > 100 µM
GI50 (BT-549 breast): 80 µM
TGI (BT-549 breast): > 100 µM

Cc1c(C(=O)c2ccccc2)[n+](=O)c2cc(F)c(F)cc2n1[O-]
GI50 (DU-145 prostate): 10.8 µM
TGI (DU-145 prostate): 24.5 µM
GI50 (NCI-H460 lung): 2.27 µM
TGI (NCI-H460 lung): 5.17 µM
GI50 (MDA-MB-231 breast): 1.46 µM
TGI (MDA-MB-231 breast): 2.83 µM
GI50 (HT29 colon): 2.52 µM
TGI (HT29 colon): > 100 µM
GI50 (BT-549 breast): 2.04 µM
TGI (BT-549 breast): 4.39 µM

CCc1ncc(CO)n1Cc1cccc2ccccc12
TGI (DU-145 prostate): > 100 µM
TGI (HCT-116 colon): > 100 µM
TGI (SK-MEL-2 melanoma): > 100 µM
TGI (NCI-H460 lung): > 100 µM
TGI (MDA-MB-231 breast): > 100 µM
TGI (HT29 colon): > 100 µM
TGI (BT-549 breast): > 100 µM

CCN(CC)CC(O)c1cc(-c2ccc(Cl)cc2)nc2c(C)c(Cl)ccc12 (stereo not drawn)
GI50 (DU-145 prostate): 1.7 µM
TGI (DU-145 prostate): 3.08 µM
GI50 (HCT-116 colon): 1.66 µM
TGI (HCT-116 colon): 3.18 µM
GI50 (SK-MEL-2 melanoma): 2.1 µM
TGI (SK-MEL-2 melanoma): 3.61 µM
GI50 (MDA-MB-231 breast): 1.47 µM
TGI (MDA-MB-231 breast): 3.03 µM
GI50 (HT29 colon): 1.55 µM
TGI (HT29 colon): 2.94 µM
GI50 (HL-60(TB) leukemia): 2.1 µM
TGI (HL-60(TB) leukemia): 4.57 µM
GI50 (BT-549 breast): 2.27 µM
TGI (BT-549 breast): 4.49 µM

CN(C)c1ccc(/C=c2/c3cc(O)ccc3n3c2cc(-c2ccccc2)[n+]3C)cc1
TGI (DU-145 prostate): 6.07 µM
GI50 (HCT-116 colon): 1.1 µM
TGI (SK-MEL-2 melanoma): 2.55 µM
TGI (MDA-MB-231 breast): 2.82 µM
TGI (HT29 colon): 3.86 µM
TGI (HL-60(TB) leukemia): 1.05 µM

CCn1ncc(N=O)c1N
TGI (DU-145 prostate): > 100 µM
TGI (HCT-116 colon): > 100 µM
TGI (SK-MEL-2 melanoma): > 100 µM
TGI (NCI-H460 lung): > 100 µM
TGI (HT29 colon): > 100 µM

COc1cc(C2CC(c3cccc(Nc4ccnc5cc(Cl)ccc45)c3)=NN2c2ccccc2)cc(OC)c1OC (stereo not drawn)
GI50 (DU-145 prostate): > 100 µM
TGI (DU-145 prostate): > 100 µM
GI50 (HCT-116 colon): 6.51 µM
TGI (HCT-116 colon): > 100 µM
GI50 (SK-MEL-2 melanoma): 8.78 µM
TGI (SK-MEL-2 melanoma): 75.6 µM
GI50 (NCI-H460 lung): 3.27 µM
TGI (NCI-H460 lung): > 100 µM
GI50 (MDA-MB-231 breast): 4.77 µM
TGI (MDA-MB-231 breast): > 100 µM
GI50 (HL-60(TB) leukemia): 5.37 µM
TGI (HL-60(TB) leukemia): > 100 µM
GI50 (BT-549 breast): 13.9 µM
TGI (BT-549 breast): > 100 µM
